Among the data in ChEMBL document CHEMBL5212743, “Selectivity Literature for EUbOPEN Chemogenomics Library wave 3” (2023) are % of control values, retold here.

Assay [1] deals with Death-associated protein kinase 1 (Homo sapiens) (UniProt P53355). The assay is described as follows: Selectivity interaction (KinomeScan (DiscoverX)) EUB0000698a DAPK1. The note with it: at 10 µM.
Assay [2] addresses T1, Serine/threonine-protein kinase ULK2 (Homo sapiens) (UniProt Q8IYT8).
T1 sequence (whole entry): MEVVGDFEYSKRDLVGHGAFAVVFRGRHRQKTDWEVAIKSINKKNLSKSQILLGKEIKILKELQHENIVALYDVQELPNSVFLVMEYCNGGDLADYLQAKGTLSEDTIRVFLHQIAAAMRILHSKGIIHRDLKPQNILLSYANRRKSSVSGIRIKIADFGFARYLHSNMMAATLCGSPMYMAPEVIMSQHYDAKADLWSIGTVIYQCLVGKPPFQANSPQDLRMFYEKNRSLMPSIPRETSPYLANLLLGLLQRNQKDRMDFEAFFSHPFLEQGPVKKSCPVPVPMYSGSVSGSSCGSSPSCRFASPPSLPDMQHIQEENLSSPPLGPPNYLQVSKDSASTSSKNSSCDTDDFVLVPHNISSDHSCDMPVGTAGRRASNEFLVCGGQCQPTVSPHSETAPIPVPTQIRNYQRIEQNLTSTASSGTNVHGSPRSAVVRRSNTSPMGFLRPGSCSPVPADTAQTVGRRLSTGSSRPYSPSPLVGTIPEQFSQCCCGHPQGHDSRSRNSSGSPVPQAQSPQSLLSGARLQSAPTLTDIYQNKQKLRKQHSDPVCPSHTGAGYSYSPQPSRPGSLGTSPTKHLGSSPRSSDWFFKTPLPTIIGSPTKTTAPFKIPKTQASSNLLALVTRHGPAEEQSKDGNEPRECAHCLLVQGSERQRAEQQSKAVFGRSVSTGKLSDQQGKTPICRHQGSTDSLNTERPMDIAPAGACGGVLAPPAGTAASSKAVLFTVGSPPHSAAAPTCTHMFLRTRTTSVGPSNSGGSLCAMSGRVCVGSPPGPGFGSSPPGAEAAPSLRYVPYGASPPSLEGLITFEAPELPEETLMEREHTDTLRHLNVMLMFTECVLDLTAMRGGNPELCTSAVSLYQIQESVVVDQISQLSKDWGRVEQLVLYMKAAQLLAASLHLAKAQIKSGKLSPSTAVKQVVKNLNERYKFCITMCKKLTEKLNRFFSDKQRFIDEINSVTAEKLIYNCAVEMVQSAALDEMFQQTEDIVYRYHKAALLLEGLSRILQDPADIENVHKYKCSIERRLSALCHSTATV
The assay is described as follows: Selectivity interaction (KinomeScan (DiscoverX)) EUB0000702a ULK2. Particulars: at 1 µM.

For assay [3], the target named is Bone morphogenetic protein receptor type-1B (Homo sapiens) (UniProt O00238). The assay is described as follows: Selectivity interaction (KinomeScan (DiscoverX)) EUB0000702a BMPR1B. Particulars: at 1 µM.
Assay [4] deals with Tyrosine-protein kinase CSK (Homo sapiens) (UniProt P41240). Put plainly: Selectivity interaction (Kinase panel (University of Dundee)) EUB0000169b CSK. The note with it: at 10 µM.
In assay [5] the target is Serine/threonine-protein kinase TAO1 (Homo sapiens) (UniProt Q7L7X3). The assay is described as follows: Selectivity interaction (KinomeScan (DiscoverX)) EUB0000178b TAOK1. Particulars: at 1 µM.
The target of assay [6] is Non-receptor tyrosine-protein kinase TYK2 (Homo sapiens, UniProt P29597). The assay is described as follows: Selectivity interaction (KinomeScan (DiscoverX)) EUB0000178b TYK2. The note with it: at 1 µM.
For assay [7], the target named is T2, Phosphatidylinositol 5-phosphate 4-kinase type-2 gamma (Homo sapiens) (UniProt Q8TBX8).
T2 sequence (whole entry): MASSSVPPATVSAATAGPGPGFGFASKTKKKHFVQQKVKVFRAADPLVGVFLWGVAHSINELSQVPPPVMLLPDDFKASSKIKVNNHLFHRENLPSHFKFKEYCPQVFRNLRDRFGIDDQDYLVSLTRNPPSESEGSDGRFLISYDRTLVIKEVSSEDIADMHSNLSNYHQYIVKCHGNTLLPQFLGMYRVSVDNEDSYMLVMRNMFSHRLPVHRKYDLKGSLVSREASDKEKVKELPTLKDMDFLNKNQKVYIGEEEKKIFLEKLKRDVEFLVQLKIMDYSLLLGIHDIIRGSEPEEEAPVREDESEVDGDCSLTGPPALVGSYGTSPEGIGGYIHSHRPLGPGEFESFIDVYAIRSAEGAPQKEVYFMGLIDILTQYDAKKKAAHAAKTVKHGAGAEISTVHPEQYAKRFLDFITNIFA
Put plainly: Selectivity interaction (KinomeScan (DiscoverX)) EUB0000178b PIP4K2C. The note with it: at 1 µM.

For assay [8], the target named is Tyrosine-protein kinase JAK2 (Homo sapiens, UniProt O60674). The assay is described as follows: Selectivity interaction (KinomeScan (DiscoverX)) EUB0000138c JAK2. Particulars: at 100 nM.
Chain of Tyrosine-protein kinase JAK2 (O60674 whole entry): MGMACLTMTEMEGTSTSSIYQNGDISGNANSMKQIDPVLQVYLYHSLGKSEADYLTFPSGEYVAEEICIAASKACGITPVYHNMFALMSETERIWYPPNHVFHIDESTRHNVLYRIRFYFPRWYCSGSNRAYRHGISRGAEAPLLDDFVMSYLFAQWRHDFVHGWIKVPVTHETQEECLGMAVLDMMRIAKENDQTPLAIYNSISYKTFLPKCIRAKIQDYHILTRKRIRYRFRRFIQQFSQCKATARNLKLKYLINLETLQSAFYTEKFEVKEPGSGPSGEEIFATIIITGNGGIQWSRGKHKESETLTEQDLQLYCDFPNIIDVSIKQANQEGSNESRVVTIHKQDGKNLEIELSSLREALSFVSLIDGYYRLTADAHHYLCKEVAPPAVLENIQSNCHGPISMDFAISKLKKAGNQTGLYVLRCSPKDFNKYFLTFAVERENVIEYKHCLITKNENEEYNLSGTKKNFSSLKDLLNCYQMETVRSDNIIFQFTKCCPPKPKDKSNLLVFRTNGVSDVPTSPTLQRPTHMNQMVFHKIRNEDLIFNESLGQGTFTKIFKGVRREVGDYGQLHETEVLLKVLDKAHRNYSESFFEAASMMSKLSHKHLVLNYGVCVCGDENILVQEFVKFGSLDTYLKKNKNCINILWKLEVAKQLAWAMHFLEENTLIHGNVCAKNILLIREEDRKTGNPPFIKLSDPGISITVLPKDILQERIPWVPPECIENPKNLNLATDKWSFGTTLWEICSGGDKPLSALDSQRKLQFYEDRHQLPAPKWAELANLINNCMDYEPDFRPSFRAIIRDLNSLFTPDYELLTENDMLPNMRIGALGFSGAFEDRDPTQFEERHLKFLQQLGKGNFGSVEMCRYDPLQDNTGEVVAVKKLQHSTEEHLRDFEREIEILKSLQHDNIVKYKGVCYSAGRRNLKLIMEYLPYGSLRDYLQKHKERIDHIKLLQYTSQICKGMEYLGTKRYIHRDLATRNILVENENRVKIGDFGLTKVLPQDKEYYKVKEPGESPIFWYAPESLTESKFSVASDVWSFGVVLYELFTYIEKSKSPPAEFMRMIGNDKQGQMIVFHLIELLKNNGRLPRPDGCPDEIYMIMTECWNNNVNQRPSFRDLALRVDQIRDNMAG

Chain of Bone morphogenetic protein receptor type-1B (Homo sapiens) (O00238 whole entry): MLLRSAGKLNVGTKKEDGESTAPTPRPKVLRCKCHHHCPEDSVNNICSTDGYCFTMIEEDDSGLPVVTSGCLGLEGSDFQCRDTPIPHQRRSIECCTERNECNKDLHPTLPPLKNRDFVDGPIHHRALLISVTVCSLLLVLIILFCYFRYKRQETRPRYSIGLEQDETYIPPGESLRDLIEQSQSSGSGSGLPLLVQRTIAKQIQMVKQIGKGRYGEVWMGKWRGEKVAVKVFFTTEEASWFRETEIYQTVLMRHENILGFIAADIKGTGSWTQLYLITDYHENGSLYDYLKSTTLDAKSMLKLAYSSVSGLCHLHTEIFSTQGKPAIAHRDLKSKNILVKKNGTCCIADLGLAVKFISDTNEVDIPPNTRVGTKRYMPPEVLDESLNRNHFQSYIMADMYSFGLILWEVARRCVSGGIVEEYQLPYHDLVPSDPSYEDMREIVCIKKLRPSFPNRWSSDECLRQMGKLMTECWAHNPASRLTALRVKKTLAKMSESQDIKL
Chain of Tyrosine-protein kinase CSK (Homo sapiens) (P41240 2-450 limits assumed): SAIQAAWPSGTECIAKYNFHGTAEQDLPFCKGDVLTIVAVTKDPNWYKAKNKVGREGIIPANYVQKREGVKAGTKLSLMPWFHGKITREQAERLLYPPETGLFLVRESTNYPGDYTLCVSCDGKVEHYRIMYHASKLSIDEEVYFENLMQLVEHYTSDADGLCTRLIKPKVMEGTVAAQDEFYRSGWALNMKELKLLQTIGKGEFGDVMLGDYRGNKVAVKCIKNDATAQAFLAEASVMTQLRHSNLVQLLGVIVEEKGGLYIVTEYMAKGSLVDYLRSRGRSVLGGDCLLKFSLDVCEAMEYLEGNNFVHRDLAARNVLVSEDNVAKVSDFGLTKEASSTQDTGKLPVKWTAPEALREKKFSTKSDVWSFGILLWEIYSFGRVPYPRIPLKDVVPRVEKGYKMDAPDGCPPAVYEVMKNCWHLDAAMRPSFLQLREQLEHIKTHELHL
Chain of Death-associated protein kinase 1 (Homo sapiens) (P53355 whole entry, looked up): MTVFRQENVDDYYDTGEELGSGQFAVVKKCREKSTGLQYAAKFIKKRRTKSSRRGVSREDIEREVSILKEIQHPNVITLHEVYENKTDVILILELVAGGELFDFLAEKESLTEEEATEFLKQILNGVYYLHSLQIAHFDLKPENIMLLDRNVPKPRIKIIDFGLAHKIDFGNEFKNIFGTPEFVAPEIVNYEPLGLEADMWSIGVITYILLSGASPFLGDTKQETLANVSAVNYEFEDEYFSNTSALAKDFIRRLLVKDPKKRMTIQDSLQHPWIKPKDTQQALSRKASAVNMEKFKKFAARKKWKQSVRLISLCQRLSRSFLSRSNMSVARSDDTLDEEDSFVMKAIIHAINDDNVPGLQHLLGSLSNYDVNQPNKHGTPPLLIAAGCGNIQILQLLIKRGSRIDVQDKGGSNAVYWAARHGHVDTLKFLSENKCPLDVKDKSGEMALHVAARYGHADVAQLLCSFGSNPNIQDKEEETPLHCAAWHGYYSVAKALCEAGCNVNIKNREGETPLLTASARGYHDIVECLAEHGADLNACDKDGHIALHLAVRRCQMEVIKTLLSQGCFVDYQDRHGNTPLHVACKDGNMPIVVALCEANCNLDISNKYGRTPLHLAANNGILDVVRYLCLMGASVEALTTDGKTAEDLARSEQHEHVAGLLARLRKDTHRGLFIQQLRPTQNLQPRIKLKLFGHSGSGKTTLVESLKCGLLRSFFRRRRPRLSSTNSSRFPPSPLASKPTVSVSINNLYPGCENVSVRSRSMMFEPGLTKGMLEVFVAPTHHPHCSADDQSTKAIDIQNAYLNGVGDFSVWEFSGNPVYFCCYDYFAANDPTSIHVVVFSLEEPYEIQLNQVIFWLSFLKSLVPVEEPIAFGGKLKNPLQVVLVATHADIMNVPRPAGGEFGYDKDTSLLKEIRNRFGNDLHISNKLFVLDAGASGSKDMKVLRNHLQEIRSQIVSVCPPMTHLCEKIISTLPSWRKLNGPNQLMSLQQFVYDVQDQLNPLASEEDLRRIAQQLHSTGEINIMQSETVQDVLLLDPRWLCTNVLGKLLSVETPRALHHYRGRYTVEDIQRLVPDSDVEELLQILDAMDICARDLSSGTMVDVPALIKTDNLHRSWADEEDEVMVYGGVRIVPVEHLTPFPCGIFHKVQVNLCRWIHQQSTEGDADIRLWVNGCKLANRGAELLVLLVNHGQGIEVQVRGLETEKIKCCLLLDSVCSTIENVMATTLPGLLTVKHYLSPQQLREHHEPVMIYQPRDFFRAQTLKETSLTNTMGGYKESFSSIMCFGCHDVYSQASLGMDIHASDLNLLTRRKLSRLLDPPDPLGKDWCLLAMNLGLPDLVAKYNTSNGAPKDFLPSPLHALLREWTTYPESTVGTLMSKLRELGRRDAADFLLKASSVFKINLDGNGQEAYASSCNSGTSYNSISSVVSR
Chain of Serine/threonine-protein kinase TAO1 (Homo sapiens) (Q7L7X3 whole entry): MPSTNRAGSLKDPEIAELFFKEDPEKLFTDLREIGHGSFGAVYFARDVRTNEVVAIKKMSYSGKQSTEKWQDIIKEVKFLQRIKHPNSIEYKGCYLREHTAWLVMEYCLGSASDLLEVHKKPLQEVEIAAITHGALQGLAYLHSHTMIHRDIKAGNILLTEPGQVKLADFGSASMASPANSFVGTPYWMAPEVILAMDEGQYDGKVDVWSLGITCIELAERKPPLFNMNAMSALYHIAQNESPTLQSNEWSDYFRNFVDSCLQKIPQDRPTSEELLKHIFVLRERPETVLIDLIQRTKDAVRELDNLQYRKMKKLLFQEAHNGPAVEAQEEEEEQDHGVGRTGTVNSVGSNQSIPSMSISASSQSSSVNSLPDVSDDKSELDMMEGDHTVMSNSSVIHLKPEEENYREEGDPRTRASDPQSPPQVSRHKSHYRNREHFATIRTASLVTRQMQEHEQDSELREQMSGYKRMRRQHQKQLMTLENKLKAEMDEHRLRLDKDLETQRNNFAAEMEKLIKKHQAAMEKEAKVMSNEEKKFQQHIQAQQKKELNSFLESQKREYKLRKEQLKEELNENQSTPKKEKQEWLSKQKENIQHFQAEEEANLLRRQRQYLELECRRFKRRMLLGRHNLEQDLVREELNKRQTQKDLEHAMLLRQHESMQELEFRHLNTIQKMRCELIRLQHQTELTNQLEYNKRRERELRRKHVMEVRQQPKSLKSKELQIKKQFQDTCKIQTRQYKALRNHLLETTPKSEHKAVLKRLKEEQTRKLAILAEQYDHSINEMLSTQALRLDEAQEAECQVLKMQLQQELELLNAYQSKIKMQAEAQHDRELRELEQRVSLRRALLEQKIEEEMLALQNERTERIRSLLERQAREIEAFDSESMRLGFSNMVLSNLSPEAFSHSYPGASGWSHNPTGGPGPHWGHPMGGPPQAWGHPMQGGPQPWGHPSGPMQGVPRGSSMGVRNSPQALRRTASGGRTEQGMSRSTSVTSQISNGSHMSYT

For the compound `COc1cc2ncn(-c3cc(OCc4ccccc4C(F)(F)F)c(C(N)=O)s3)c2cc1OC` [GW843682X], the % of control in assay [1] turned out to be 8.6%.

For `CN(c1ccnc(CNc2nc(Nc3ccc4c(c3)CC(=O)N4)ncc2C(F)(F)F)n1)S(C)(=O)=O` [PF-00911705], the % of control in assay [2] is 5.4%; in assay [3] it was 3.6%.

In assay [4], `CC[C@@H]1C(=O)N(C)c2cnc(Nc3ccc(C(=O)NC4CCN(C)CC4)cc3OC)nc2N1C1CCCC1` came in with a % of control of 99%.

With `CN1C(=O)c2sccc2N(C)c2nc(Nc3ccc(S(N)(=O)=O)cc3)ncc21`, the % of control in assay [5] came to 2.6%; in assay [6], 2.7%; in assay [7], 8%.

Regarding `CNC(=O)c1ccc(Nc2ncc(C(F)(F)F)c(NCc3nccnc3N(C)S(C)(=O)=O)n2)cc1` [DEFACTINIB], in assay [8], the % of control amounted to 4.8%.
